Source: US20070224291A1, “Cancer treatment” (priority 2005, published 2007)

Tests used:
Sarcoma 45 = test: Antitumor activity, transplantable Sarcoma 45 (subcutaneous); format: in vivo; settings: rats, reference medication, identical experimental conditions
Method: (§1) The antitumor activity of the medication of the present invention was studied in mice and rats with transplantable tumors of Sarcoma 37, 45, and 180, and Ehrlich ascites tumor.
(§2) Necrosis-free pieces of tumoral tissue (a peripheral part of a tumoral node) cut with scissors to form a homogeneous mass served as transplantants for solid models (Sarcomas 37, 45 and 180). A sterile physiological solution in the proportion of 1:3-1:4 was added to the tumor and the resulting suspension was introduced with a syringe subcutaneously to the animals. The transplantation was conducted in sterile box conditions using 12-14 days' tumor as a donor. The transplantation of sarcomas 37 and 180 was performed by means of subcutaneous introduction of 0.2-0.3 ml of the 20% tumoral suspension in a physiological solution to the axillary crease of each mouse. For the transplantation of Sarcoma 45, by 0.4-0.5 ml of suspension of tumoral cells was introduced subcutaneously (to the lateral area) of each rat. On the 4th-5th days after inoculation, when the transplanted tumor is usually pea-size, the animals were divided into test and control groups each having 8 mice and 10 rats. […] A day after the last injection of the medication, the animals were killed with ether, weighed, and the weight of tumors was measured separately. […]

[1] = in vivo
Method: (§3) In the study of antitimor properties of the medication of the present invention, the medication was used in doses of 20 and 40 ml/kg, and 10 and 30 ml/kg in the tests on mice and rats, respectively. The general toxic action which the medication had on the organism of the tested animals was estimated by their outer appearance and behavior during the experiment, as well as by the Growth Ratio (GR) expressed in percent.

Sarcoma 37 = test: Antitumor activity, transplantable Sarcoma 37 (subcutaneous); format: in vivo; settings: mice, reference medication, identical experimental conditions
Method: as §1, §2

Ehrlich ascites tumor = test: Antitumor activity, transplantable Ehrlich ascites tumor (intraperitoneal); format: in vivo; settings: mice, reference medication, optimal therapeutic dose of 25 ml/kg
Method: as §1, §3
The numerical data obtained was processed statistically by Student-Fisher's method.

Sarcoma 180 = test: Antitumor activity, transplantable Sarcoma 180 (subcutaneous); format: in vivo; settings: mice, reference medication, identical experimental conditions
Method: as §1, §2

GR, span over all tests [1]: −7.3 to −11
Structure (SMILES): O=c1[nH]cc(F)c(=O)[nH]1 [5-fluorouracil]
inhibition of tumor growth (Sarcoma 45): 32%
therapeutic effect (inhibition of tumor growth) (Sarcoma 37): 70%
antitumor effect (inhibition of ascit accumulation) (Ehrlich ascites tumor): 70%
inhibition of tumor growth (Sarcoma 180): 45%
